The compounds below were run against T1, TcAAAP069 (Trypanosoma cruzi, UniProt Q4DAV2) (assay: cell-based). Conditions: read-out: % inhibition at 10 mM.
T1 construct: gene Tc00.1047053504069.120; full-length gene in pTREXL, overexpressed in T. cruzi epimastigotes (also p416/pDR196 in S. cerevisiae MG266 gap1 put4); about 10 transmembrane spans; allele TcAAAP229 has a 62-residue N-terminal extension
T1 sequence (Q4DAV2 entry or part of it): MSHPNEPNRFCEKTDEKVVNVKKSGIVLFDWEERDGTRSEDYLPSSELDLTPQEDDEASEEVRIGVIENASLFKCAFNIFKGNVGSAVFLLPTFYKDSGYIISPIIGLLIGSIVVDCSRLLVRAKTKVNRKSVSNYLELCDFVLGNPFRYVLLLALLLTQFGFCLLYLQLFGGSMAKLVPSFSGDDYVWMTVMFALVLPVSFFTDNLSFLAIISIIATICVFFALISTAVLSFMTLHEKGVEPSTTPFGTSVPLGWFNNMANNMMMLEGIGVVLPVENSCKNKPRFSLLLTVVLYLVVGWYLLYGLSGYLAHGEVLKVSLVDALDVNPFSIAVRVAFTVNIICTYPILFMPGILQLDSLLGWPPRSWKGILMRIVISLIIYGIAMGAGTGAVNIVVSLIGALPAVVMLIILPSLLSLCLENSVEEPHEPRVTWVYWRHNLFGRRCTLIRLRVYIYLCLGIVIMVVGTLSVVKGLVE

First: O=C(O)[C@H]1CCCN1 [D-proline]
Second: O=C(O)[C@@H]1CSCN1 [L-thiazolidine-4-carboxylic acid]
The inhibition at 10000 µM of the first is higher: 76.3% for the first, 44.2% for the second.

O=C(O)[C@@H]1C[C@@H](O)CN1 [hydroxyproline] gave an inhibition at 10000 µM of 91.8%.

— PMC3956872 (PLoS ONE, 2014)
